From US20260374766A1, “METHODS FOR TREATING CANCER” (Antares Therapeutics, Inc., priority 2022, published 2026)
pIC50, pKd: −log10 of the molar value. Where two headings read alike, the source gives them in different places.

Columns and labels:
H1299 p53 Y220C = assay: Cell Proliferation Assay (CellTiter-Glo, CTG), H1299 p53 Y220C (NClH1299-inducible p53 Y220C); assay type: cell-based; conditions: Homo sapiens, NCI-H1299, 120 h, CellTiter-Glo, H1299 p53 Y220C, 5 days
Method in brief: (§1)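 Cells seeded at 250-500 per well and exposed to compound for 5 days. Viability read by CellTiter-Glo luminescence after 10 min at room temperature; IC50 calculated. H1299 lines carry Tet-One inducible p53 mutant constructs introduced by lentiviral transduction.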

H1299 p53 R273H = assay: Cell Proliferation Assay (CellTiter-Glo, CTG), H1299 p53 R273H (NClH1299-inducible p53 R273H); assay type: cell-based; conditions: Homo sapiens, NCI-H1299, 120 h, CellTiter-Glo, H1299 p53 R273H, 5 days
Method in brief: as §1

NUGC3 p53 Y220C = assay: Cell Proliferation Assay (CellTiter-Glo, CTG), NUGC3 p53 Y220C; assay type: cell-based; conditions: Homo sapiens, NUGC-3, 120 h, CellTiter-Glo, NUGC3 p53 Y220C, 5 days
Method in brief: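 NClH1299 lines stably transduced with Tet-inducible p53 Y220C or R273H, plus NUGC3, were treated with compound for 5 days at 250-500 cells/well. IC50 derived from CellTiter-Glo luminescent signal after 10 min room-temperature incubation.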

[1] = target: T1, p53 Y220C mutant protein (amino acid residues 94-293) (Homo sapiens, UniProt P04637, Y220C); assay: Surface Plasmon Resonance (SPR) assay, Kd_kinetic; assay type: binding; conditions: read-out: SPR P53 Y220C KD kinetic
T1 construct: p53 Y220C mutant protein (amino acid residues 94-293)
Method in brief: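 Binding measured by SPR on a Biacore 8K in running buffer of 50 mM Tris pH 7.5, 100 mM NaCl, 1 mM DTT, 0.01% Brij35, 0.05% Tween-20, 1% DMSO.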

[2] = target: T1, p53 Y220C mutant protein (amino acid residues 94-293); assay: Thermal Shift Assay (TSA), dTM; assay type: binding; conditions: thermal shift; for ΔTm at 10 µM: 10 uM compound, read-out: TSA P53 Y220C dTM (10 uM); for ΔTm at 100 µM: 100 uM compound, read-out: TSA P53 Y220C dTM (100 uM)
Method in brief: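 First, the mutant DNA-binding domain (5 μM) was preincubated 3 hours at 20 °C with compound at 10 μM or 100 μM. Next, the sample was heated from 30 °C to 50 °C at 0.03 °C/second in the presence of Sypro Orange. Finally, TM was obtained from a two-state Boltzmann fit.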

p53 Y220C = p53 Y220C (Homo sapiens, UniProt P04637, Y220C); assay: Luciferase Reporter Assay (Luc), p53 response element, NClH1299 cells with inducible p53 Y220C; assay type: cell-based; conditions: luciferase reporter, NClH1299 inducible p53 Y220C, 6 hour; for Emax: 10 uM tool compound as positive control; for AC50: read-out: Luc P53 Y220C AC50
Method in brief: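 Luciferase activity is measured directly after One-Glo addition and a 5-minute room-temperature shake. Before that, cells plated at 5,000 per well receive doxycycline at 0.5 ug/mL for 24 hours, followed by compound for 6 hours.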

Structure (SMILES)	pIC50 (H1299 p53 Y220C)	pIC50 (H1299 p53 R273H)	pIC50 (NUGC3 p53 Y220C)	pKd ([1]; SPR, kinetic KD, p53 Y220C)	ΔTm at 10 µM [2]	Emax (p53 Y220C)	AC50 (p53 Y220C)	ΔTm at 100 µM [2]	pKd [1]
COc1ncc(C(N)=O)cc1NCC#Cc1nc2c(N[C@@H]3CCN(C)C[C@@H]3F)cccn2c1SC(F)(F)F [Example 140]	> 6.12	> 5.30	> 6.12	> 8.00	≥ 10 °C	80 to 90%	< 750 nM		
CNC(=O)c1cnc(OC)c(NCC#Cc2nc3c(N[C@@H]4CCN(C)C[C@@H]4F)cccn3c2SC(F)(F)F)c1 [Example 141]	> 6.12	≤ 5.00	> 6.12	> 8.00	≥ 10 °C	80 to 90%	< 750 nM	≥ 10 °C	
CNC(=O)c1cncc(NCC#Cc2nc3c(N[C@@H]4CCN(C)C[C@@H]4F)cccn3c2SC(F)(F)F)c1 [Example 142]	5.82 to 6.12	≤ 5.00	> 6.12	> 8.00	≥ 10 °C	< 70%	750 to 1500 nM	≥ 10 °C	
COc1ccc(C(=O)N2CCC2)cc1NCC#Cc1nc2c(N[C@@H]3CCN(C)C[C@@H]3F)cccn2c1SC(F)(F)F [Example 144]	5.52 to 5.82	≤ 5.00	5.82 to 6.12		5 to 10 °C	80 to 90%	750 to 1500 nM	≥ 10 °C	> 8.00
COc1ccc(C(=O)NC(C)C)cc1NCC#Cc1nc2c(N[C@@H]3CCN(C)C[C@@H]3F)cccn2c1SC(F)(F)F [Example 145]	> 6.12	≤ 5.00	> 6.12	> 8.00	≥ 10 °C	80 to 90%	< 750 nM	≥ 10 °C	
CNC(=O)c1ccc(NCC#Cc2nc3c(N[C@@H]4CN(C)CC[C@@H]4F)cccn3c2SC(F)(F)F)c(OC)c1 [Example 146]	> 6.12	5.10 to 5.30	> 6.12	> 8.00	≥ 10 °C	70 to 80%	< 750 nM	≥ 10 °C	
CNC(=O)c1ccc(NCC#Cc2nc3c(N[C@H]4CN(C)CC[C@@H]4F)cccn3c2SC(F)(F)F)c(OC)c1 [Example 147]	> 6.12	5.00 to 5.10	> 6.12	> 8.00	≥ 10 °C	> 90%	< 750 nM	≥ 10 °C	
CNC(=O)c1cc(NCC#Cc2nc3c(N[C@@H]4CCN(C)C[C@@H]4F)cccn3c2SC(F)(F)F)c(OC)cn1 [Example 148]	> 6.12	≤ 5.00	> 6.12	> 8.00	≥ 10 °C	70 to 80%	< 750 nM	≥ 10 °C	
CNC(=O)c1cccc(NCC#Cc2nc3c(N[C@@H]4CCN(C)C[C@@H]4F)cccn3c2SC(F)(F)F)c1 [Example 149]	> 6.12	≤ 5.00	> 6.12		≥ 10 °C	80 to 90%	< 750 nM	≥ 10 °C	> 8.00
COc1cc2c(cc1NCC#Cc1nc3c(N[C@@H]4CCN(C)C[C@@H]4F)cccn3c1SC(F)(F)F)C(=O)NC2 [Example 151]	> 6.12	5.10 to 5.30	> 6.12	> 8.00	≥ 10 °C	> 90%	< 750 nM		
CNC(=O)c1ccc(OC)c(NCC#Cc2nc3c(N[C@@H]4CNC[C@@H]4F)cccn3c2SC(F)(F)F)c1 [Example 152]	> 6.12	≤ 5.00	> 6.12	> 8.00	≥ 10 °C	70 to 80%	< 750 nM	≥ 10 °C	
CNC(=O)c1ccc(OC)c(NCC#Cc2nc3c(N[C@@H]4CN(C)C[C@@H]4F)cccn3c2SC(F)(F)F)c1 [Example 153]	> 6.12	≤ 5.00	> 6.12	> 8.00	≥ 10 °C	80 to 90%	< 750 nM	≥ 10 °C	
CNC(=O)c1ccc(OC)c(NCC#Cc2nc3c(N[C@@H]4CCN(C)C[C@@H]4F)cc(F)cn3c2SC(F)(F)F)c1 [Example 154, 3-{[3-(6-fluoro-8-{[(3S,4R)-3-fluoro-1-methylpiperidin-4-yl]amino}-3-[(trifluoromethyl)sulfanyl]imidazo[1,2-a]pyridin-2-yl)prop-2-yn-1-yl]amino}-4-methoxy-N-methylbenzamide]	> 6.12	> 5.30	> 6.12	> 8.00	≥ 10 °C	70 to 80%	< 750 nM	≥ 10 °C	
CNC(=O)c1ccc(NCC#Cc2cc3c(N[C@@H]4CCN(C)C[C@@H]4F)nccn3c2SC(F)(F)F)c(OC)c1 [Example 155, 4-{[3-(1-{[(3S,4R)-3-fluoro-1-methylpiperidin-4-yl]amino}-6-[(trifluoromethyl)sulfanyl]pyrrolo[1,2-a]pyrazin-7-yl)prop-2-yn-1-yl]amino}-3-methoxy-N-methylbenzamide; formic acid]	> 6.12	5.00 to 5.10	> 6.12		≥ 10 °C	> 90%	< 750 nM	≥ 10 °C	> 8.00
CNC(=O)c1ccc(OC)c(NCC#Cc2cc3c(N[C@@H]4CCN(C)C[C@@H]4F)nccn3c2SC(F)(F)F)c1 [Example 156, 3-{[3-(1-{[(3S,4R)-3-fluoro-1-methylpiperidin-4-yl]amino}-6-[(trifluoromethyl)sulfanyl]pyrrolo[1,2-a]pyrazin-7-yl)prop-2-yn-1-yl]amino}-4-methoxy-N-methylbenzamide]	> 6.12	5.00 to 5.10	> 6.12	> 8.00	≥ 10 °C	> 90%	< 750 nM	≥ 10 °C	
CNC(=O)c1ccc(OC)c(NCC#Cc2nc3c(N[C@@H]4CCN(C)C[C@@H]4F)cccn3c2SC(F)(F)F)n1 [Example 158]	> 6.12	5.10 to 5.30	> 6.12		≥ 10 °C	80 to 90%	< 750 nM	≥ 10 °C	> 8.00
CNC(=O)c1ccc(F)c(NCC#Cc2nc3c(N[C@@H]4CCN(C)C[C@@H]4F)cccn3c2SC(F)(F)F)c1 [Example 159]	> 6.12	≤ 5.00	> 6.12	> 8.00	≥ 10 °C	> 90%	< 750 nM		
CNC(=O)c1ccc(C)c(NCC#Cc2nc3c(N[C@@H]4CCN(C)C[C@@H]4F)cccn3c2SC(F)(F)F)c1 [Example 160]	> 6.12	≤ 5.00	> 6.12	> 8.00	≥ 10 °C	> 90%	< 750 nM	≥ 10 °C	
CNC(=O)c1cnc(NCC#Cc2nc3c(N[C@@H]4CCN(C)C[C@@H]4F)cccn3c2SC(F)(F)F)n1C [Example 161]	5.52 to 5.82	≤ 5.00	5.52 to 5.82	7.00 to 8.00	5 to 10 °C	< 70%	> 3000 nM	≥ 10 °C	
CNC(=O)c1cccc(NCC#Cc2nc3c(N[C@@H]4CCN(C)C[C@@H]4F)cccn3c2SC(F)(F)F)n1 [Example 162]	> 6.12	≤ 5.00	> 6.12	> 8.00	≥ 10 °C	80 to 90%	< 750 nM	≥ 10 °C	
CNC(=O)c1ccc(NCC#Cc2nc3c(N[C@@H]4CCN(C)C[C@@H]4F)cccn3c2SC(F)(F)F)cc1 [Example 163]	> 6.12	≤ 5.00	> 6.12	> 8.00	≥ 10 °C	> 90%	< 750 nM	≥ 10 °C	
COc1cc(C(N)=O)ccc1NCC#Cc1nc2c(N[C@@H]3CCN(C)C[C@@H]3F)cccn2c1SC(F)(F)F [Example 165]	> 6.12	5.00 to 5.10	> 6.12	> 8.00	≥ 10 °C	> 90%	< 750 nM	≥ 10 °C	
